Measurements from PubChem BioAssay AID2060337 (Molecular Pharmacology Branch, DTP, NCI, 2025).
Values joined by “and” are separate entries in the source; they are usually repeats but may differ in a detail not shown here. Equal entries are not always repeated.

System: 832693-133-R-J1-PDC multi-cell spheroids, viability
Assay: Anticancer human tumor 832693-133-R-J1-PDC patient-derived head and neck squamous carcinoma cell line growth inhibition [IpAb]
Conditions: for viability, T/C: stronger effect = lower value
Method in brief: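 Spheroids of 60% malignant cells, 25% HUVEC and 15% MSC were exposed to targeted agents combined with ipatasertib or abemaciclib. Doses started at or near clinical Cmax (10 microM when unknown) and fell in half-log steps.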
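Further: spheroids exposed to the drugs for one week before the viability readout.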
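Wherever viability, T/C is given: 100% = DMSO vehicle control wells.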

With `C=CC(=O)N1CCN(c2nc(=O)n(-c3c(C)ccnc3C(C)C)c3nc(-c4c(O)cccc4F)c(F)cc23)C(C)C1` (stereo unspecified) the viability, T/C (compound 0.0316 µM) was 105% and 95%, the viability, T/C (compound 0.1 µM) was 108% and 101% and the viability, T/C (compound 0.316 µM) was 111% and 103%. The viability, T/C (compound 1 µM) was 114% and 115%, the viability, T/C (compound 3.16 µM) was 122% and 110% and the viability, T/C (compound 10 µM) was 100% and 98.5%. For the same compound, the IC50 (curve of compound) was greater than 10 µM.

In the case of `CC(C)n1nc(-c2ccc3oc(N)nc3c2)c2c(N)ncnc21`, the viability, T/C (compound 0.000316 µM) is reported as 94.6% and 91.2%, the viability, T/C (compound 0.001 µM) is reported as 89.4% and 88.7% and the viability, T/C (compound 0.00316 µM) is reported as 86.9% and 76%. For the same compound, the viability, T/C (compound 0.01 µM) was 76.9% and 68.7%, the viability, T/C (compound 0.0316 µM) was 67.5% and 60.2% and the viability, T/C (compound 0.1 µM) was 61.8% and 52.7%. For the same compound, the IC50 (curve of compound) was greater than 0.1 µM.

In the case of `CCCS(=O)(=O)Nc1ccc(F)c(C(=O)c2c[nH]c3ncc(-c4ccc(Cl)cc4)cc23)c1F`, the viability, T/C (compound 0.0316 µM) is reported as 102% and 106%, the viability, T/C (compound 0.1 µM) is reported as 107% and 108% and the viability, T/C (compound 0.316 µM) is reported as 99.7% and 108%. The viability, T/C (compound 1 µM) was 95.7% and 90.7%, the viability, T/C (compound 3.16 µM) was 67.7% and 69.2% and the viability, T/C (compound 10 µM) was 37% and 39.9%. The IC50 (curve of compound) was 6.16 µM and 6.68 µM.

`CCCS(=O)(=O)Nc1ccc(F)c(C(=O)c2c[nH]c3ncc(-c4ccc(Cl)cc4)cc23)c1F` + CCN1CCN(Cc2ccc(Nc3ncc(F)c(-c4cc(F)c5nc(C)n(C(C)C)c5c4)n3)nc2)CC1 was tested, and the IC50 (curve of first compound, second compound 0.01 µM) was 5.06 µM, the IC50 (curve of first compound, second compound 0.0316 µM) was 3.49 µM and the IC50 (curve of first compound, second compound 0.1 µM) was 1.24 µM. The IC50 (curve of first compound, second compound 0.316 µM) was less than 0.0316 µM, the IC50 (curve of first compound, second compound 1 µM) was 0.0775 µM and the viability, T/C (second compound 0.01 µM, first compound 0.0316 µM) was 97.9%. It also gave a viability, T/C (second compound 0.01 µM, first compound 0.1 µM) of 105%, a viability, T/C (second compound 0.01 µM, first compound 0.316 µM) of 100% and a viability, T/C (second compound 0.01 µM, first compound 1 µM) of 87.6%. For the same compound, the viability, T/C (second compound 0.01 µM, first compound 3.16 µM) was 63.6%, the viability, T/C (second compound 0.01 µM, first compound 10 µM) was 30.9% and the viability, T/C (second compound 0.0316 µM, first compound 0.0316 µM) was 88.7%. The viability, T/C (second compound 0.0316 µM, first compound 0.1 µM) was 88.4%, the viability, T/C (second compound 0.0316 µM, first compound 0.316 µM) was 81.5% and the viability, T/C (second compound 0.0316 µM, first compound 1 µM) was 74.9%. The viability, T/C (second compound 0.0316 µM, first compound 3.16 µM) was 51.4%, the viability, T/C (second compound 0.0316 µM, first compound 10 µM) was 28.3% and the viability, T/C (second compound 0.1 µM, first compound 0.0316 µM) was 66.3%. For the same compound, the viability, T/C (second compound 0.1 µM, first compound 0.1 µM) was 60.1%, the viability, T/C (second compound 0.1 µM, first compound 0.316 µM) was 64.9% and the viability, T/C (second compound 0.1 µM, first compound 1 µM) was 51.9%. For the same compound, the viability, T/C (second compound 0.1 µM, first compound 3.16 µM) was 35.7%, the viability, T/C (second compound 0.1 µM, first compound 10 µM) was 15.2% and the viability, T/C (second compound 0.316 µM, first compound 0.0316 µM) was 44.8%. The viability, T/C (second compound 0.316 µM, first compound 0.1 µM) was 51.9%, the viability, T/C (second compound 0.316 µM, first compound 0.316 µM) was 40.4% and the viability, T/C (second compound 0.316 µM, first compound 1 µM) was 36.9%. The viability, T/C (second compound 0.316 µM, first compound 3.16 µM) was 26.6%, the viability, T/C (second compound 0.316 µM, first compound 10 µM) was 13.4% and the viability, T/C (second compound 1 µM, first compound 0.0316 µM) was 50.5%. For the same compound, the viability, T/C (second compound 1 µM, first compound 0.1 µM) was 49.6%, the viability, T/C (second compound 1 µM, first compound 0.316 µM) was 44.2% and the viability, T/C (second compound 1 µM, first compound 1 µM) was 24.8%. For the same compound, the viability, T/C (second compound 1 µM, first compound 3.16 µM) was 18.8% and the viability, T/C (second compound 1 µM, first compound 10 µM) was 13.3%.
